Ten molecules from ChEMBL document CHEMBL5291721, “A preclinical secondary pharmacology resource illuminates target-adverse drug reaction associations of marketed drugs” (Nat Commun, 2023) can be followed below.

In assay [1] the target is T1, Alpha-2A adrenergic receptor (Homo sapiens, UniProt P08913).
T1 sequence (P08913 whole entry): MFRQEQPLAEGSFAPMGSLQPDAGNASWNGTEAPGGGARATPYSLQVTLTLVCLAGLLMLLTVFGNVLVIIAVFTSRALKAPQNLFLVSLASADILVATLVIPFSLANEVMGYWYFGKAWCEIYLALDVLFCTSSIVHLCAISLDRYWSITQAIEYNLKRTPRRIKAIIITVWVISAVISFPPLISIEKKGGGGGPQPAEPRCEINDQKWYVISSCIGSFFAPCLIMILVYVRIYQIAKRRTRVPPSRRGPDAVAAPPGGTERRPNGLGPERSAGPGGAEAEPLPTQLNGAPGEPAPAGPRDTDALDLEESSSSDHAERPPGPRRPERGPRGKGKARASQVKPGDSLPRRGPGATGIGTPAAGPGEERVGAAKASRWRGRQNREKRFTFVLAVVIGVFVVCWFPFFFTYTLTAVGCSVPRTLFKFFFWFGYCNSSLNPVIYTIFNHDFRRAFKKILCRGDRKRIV
Type of assay: functional, cell-based.

The target in assay [2] is T2, Muscarinic acetylcholine receptor M2 (Homo sapiens, UniProt P08172).
T2 sequence (P08172 whole entry): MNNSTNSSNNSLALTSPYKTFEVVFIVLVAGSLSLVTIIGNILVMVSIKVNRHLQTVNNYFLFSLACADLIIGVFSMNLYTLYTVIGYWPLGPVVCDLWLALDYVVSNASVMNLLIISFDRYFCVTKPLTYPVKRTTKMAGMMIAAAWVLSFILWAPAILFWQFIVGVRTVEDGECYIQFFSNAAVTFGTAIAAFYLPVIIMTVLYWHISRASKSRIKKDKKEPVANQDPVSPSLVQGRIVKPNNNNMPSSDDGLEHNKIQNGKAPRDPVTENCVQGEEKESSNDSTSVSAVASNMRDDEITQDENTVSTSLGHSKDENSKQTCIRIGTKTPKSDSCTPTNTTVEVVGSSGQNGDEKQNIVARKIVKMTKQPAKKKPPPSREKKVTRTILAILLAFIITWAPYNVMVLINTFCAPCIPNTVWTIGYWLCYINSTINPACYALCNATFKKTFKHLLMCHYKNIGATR
Type of assay: functional, cell-based.

The target in assay [3] is T2, Muscarinic acetylcholine receptor M2. The class given is functional, cell-based. The source holds these as a separate data set.
The target of assay [4] is T3, Estrogen receptor (Homo sapiens, UniProt P03372).
T3 sequence (P03372 whole entry): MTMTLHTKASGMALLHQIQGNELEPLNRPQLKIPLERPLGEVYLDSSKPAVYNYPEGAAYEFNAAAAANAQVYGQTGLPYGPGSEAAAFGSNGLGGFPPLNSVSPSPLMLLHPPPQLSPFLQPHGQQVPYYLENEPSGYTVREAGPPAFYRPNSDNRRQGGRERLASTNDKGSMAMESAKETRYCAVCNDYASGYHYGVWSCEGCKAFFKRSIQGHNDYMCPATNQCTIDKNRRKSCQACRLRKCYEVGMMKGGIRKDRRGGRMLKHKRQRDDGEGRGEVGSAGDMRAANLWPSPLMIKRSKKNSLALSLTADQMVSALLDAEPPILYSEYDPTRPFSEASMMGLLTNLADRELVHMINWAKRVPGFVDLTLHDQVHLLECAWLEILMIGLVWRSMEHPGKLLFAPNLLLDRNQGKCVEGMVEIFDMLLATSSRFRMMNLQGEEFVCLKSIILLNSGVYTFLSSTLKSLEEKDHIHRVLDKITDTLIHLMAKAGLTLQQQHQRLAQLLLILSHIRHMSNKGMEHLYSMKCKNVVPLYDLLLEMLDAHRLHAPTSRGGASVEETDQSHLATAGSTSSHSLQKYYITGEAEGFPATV

Assay [5] addresses Motilin receptor (Homo sapiens, UniProt O43193).
For assay [6], the target named is Delta-type opioid receptor (Homo sapiens, UniProt P41143).
The target of assay [7] is T4, Equilibrative nucleoside transporter 1 (Homo sapiens, UniProt Q99808).
T4 sequence (Q99808 whole entry): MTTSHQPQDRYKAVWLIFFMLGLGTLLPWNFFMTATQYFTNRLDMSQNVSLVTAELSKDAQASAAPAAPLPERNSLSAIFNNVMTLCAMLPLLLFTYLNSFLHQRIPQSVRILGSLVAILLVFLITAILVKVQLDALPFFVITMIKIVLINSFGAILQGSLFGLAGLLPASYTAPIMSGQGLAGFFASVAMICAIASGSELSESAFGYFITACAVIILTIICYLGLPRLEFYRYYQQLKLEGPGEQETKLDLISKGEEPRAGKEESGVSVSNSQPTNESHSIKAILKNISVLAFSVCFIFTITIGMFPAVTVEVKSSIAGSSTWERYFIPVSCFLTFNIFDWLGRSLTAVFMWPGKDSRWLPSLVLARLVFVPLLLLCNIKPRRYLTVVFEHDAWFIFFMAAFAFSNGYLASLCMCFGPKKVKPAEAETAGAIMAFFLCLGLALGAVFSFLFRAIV

For assay [8], the target named is Sodium-dependent dopamine transporter (Homo sapiens, UniProt Q01959).
The target in assay [9] is T5, Amine oxidase [flavin-containing] A (Homo sapiens, UniProt P21397).
T5 sequence (P21397 whole entry): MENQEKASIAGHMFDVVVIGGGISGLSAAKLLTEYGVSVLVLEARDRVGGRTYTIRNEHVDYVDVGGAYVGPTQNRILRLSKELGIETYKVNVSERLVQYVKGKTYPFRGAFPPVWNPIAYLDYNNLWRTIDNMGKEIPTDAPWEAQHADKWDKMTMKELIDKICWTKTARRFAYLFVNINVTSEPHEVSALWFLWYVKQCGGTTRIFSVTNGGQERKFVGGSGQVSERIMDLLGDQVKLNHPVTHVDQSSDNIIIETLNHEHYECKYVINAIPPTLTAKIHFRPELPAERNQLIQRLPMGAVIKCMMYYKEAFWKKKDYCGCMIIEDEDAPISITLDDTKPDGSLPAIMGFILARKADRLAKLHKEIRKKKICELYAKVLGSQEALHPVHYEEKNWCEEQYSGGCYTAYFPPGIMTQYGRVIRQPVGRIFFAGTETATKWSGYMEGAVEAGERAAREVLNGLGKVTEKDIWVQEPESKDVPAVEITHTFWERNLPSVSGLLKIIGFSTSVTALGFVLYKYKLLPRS
Type of assay: functional.

Assay [10] concerns the target cGMP-inhibited 3',5'-cyclic phosphodiesterase 3A (Homo sapiens, UniProt Q14432). The class given is functional.
Assay [11] has as its target D(3) dopamine receptor (Homo sapiens, UniProt P35462).
Also: assay procedure not described here.

Sequence of Motilin receptor (O43193 whole entry): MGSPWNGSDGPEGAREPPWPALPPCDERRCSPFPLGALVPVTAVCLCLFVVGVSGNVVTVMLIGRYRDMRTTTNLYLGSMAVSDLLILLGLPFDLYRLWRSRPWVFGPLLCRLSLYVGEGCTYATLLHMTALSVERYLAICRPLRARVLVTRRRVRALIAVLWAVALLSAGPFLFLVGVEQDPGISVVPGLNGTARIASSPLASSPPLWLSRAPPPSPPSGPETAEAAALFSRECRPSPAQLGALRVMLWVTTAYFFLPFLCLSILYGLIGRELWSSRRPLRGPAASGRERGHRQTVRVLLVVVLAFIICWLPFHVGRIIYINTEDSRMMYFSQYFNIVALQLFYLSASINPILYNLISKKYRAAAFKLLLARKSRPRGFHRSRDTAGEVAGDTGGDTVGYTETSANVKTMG
Sequence of Sodium-dependent dopamine transporter (Q01959 whole entry): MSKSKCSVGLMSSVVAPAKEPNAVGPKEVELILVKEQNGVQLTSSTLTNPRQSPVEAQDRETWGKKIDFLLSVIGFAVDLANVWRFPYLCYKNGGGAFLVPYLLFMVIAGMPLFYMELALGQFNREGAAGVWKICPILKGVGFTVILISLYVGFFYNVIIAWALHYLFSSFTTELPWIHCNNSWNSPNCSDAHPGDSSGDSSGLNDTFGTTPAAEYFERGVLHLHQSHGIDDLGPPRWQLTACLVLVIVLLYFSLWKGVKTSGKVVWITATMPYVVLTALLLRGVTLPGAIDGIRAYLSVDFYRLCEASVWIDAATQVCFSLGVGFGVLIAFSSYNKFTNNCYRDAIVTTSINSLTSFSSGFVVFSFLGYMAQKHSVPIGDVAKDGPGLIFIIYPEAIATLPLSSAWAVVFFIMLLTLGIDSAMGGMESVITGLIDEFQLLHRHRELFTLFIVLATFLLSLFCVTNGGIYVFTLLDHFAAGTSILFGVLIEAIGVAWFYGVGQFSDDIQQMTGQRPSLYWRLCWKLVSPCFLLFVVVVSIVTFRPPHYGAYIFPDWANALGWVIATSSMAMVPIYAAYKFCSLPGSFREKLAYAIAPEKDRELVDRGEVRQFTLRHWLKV
Sequence of Delta-type opioid receptor (P41143 whole entry): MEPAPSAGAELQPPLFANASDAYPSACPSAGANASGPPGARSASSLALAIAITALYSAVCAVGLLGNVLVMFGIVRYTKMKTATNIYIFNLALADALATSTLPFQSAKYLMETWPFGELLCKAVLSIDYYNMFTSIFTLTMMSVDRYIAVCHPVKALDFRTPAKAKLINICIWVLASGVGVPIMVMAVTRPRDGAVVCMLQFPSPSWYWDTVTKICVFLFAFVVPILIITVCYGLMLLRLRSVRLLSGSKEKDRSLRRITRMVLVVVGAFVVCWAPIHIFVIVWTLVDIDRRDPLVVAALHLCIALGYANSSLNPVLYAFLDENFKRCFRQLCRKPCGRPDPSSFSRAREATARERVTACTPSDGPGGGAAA
Sequence of cGMP-inhibited 3',5'-cyclic phosphodiesterase 3A (Q14432 whole entry): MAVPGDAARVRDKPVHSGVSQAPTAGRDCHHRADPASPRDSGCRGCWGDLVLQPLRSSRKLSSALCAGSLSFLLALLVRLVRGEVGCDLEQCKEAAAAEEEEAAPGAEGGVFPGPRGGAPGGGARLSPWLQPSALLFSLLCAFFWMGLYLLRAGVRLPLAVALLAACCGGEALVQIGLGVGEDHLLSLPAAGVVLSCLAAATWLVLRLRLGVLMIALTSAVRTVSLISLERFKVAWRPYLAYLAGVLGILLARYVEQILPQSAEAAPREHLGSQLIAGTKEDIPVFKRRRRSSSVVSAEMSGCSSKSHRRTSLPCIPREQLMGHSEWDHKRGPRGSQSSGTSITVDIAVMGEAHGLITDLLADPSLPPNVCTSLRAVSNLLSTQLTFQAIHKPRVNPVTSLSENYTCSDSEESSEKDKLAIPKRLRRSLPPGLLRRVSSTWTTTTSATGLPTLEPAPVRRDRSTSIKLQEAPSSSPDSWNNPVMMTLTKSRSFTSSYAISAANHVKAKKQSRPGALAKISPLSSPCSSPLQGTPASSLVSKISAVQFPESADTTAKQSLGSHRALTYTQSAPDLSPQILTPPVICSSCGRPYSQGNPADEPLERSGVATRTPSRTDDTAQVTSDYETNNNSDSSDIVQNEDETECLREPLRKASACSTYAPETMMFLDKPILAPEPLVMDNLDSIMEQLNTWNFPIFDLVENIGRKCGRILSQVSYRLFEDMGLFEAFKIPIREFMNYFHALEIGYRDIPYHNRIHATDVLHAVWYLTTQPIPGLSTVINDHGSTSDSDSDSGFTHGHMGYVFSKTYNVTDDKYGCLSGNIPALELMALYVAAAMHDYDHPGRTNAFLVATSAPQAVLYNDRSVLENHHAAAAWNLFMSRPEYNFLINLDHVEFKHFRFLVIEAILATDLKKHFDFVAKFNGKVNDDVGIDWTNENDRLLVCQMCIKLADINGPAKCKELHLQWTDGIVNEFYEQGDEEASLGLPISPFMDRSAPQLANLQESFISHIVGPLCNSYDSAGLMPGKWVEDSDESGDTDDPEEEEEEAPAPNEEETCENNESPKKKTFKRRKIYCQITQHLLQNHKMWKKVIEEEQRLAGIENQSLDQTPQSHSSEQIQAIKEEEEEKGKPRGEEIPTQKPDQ
Sequence of D(3) dopamine receptor (P35462 whole entry): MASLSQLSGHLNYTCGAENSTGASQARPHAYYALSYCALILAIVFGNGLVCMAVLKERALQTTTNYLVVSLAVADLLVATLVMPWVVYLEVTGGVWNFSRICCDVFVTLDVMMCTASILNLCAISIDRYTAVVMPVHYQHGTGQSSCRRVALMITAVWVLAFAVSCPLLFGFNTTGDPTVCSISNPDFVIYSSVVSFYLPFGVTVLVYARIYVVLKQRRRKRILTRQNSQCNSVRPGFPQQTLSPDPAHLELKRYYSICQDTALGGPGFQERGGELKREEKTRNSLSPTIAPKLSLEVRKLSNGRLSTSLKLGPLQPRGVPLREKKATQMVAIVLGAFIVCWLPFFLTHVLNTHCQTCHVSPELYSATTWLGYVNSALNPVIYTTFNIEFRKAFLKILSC

Turning to `CCN1CCN(C(=O)N[C@@H](C(=O)N[C@@H]2C(=O)N3C(C(=O)O)=C(CSc4nnnn4C)CS[C@H]23)c2ccc(O)cc2)C(=O)C1=O` [CEFOPERAZONE], the AC50 in assay [1], in assay [2], in assay [3], in assay [4], in [5] and in [6] was above 30 µM each time. Further, the AC50 (usually the concentration giving half of the maximal activity seen) was above 30 µM in assay [7]; above 30 µM in assay [8]; above 30 µM in [9]; 9.5 µM in assay [10]; above 30 µM in assay [11].
Take `Cc1cc(O)c(C(=O)N[C@@H](C(=O)N[C@@H]2C(=O)N3C(C(=O)O)=C(CSc4nnnn4C)CS[C@H]23)c2ccc(O)cc2)cn1` [CEFPIRAMIDE]: the AC50 in assay [1], in [2], in assay [3], in [4], in assay [5] and in assay [6] was above 30 µM throughout. In addition, the AC50 in [7], in assay [8], in [9], in [10] and in assay [11] was above 30 µM in each case.
For `Nc1nc(/C(=C/CC(=O)O)C(=O)N[C@@H]2C(=O)N3C(C(=O)O)=CCS[C@H]23)cs1` [CEFTIBUTEN], the AC50 in [1], in assay [2], in [3], in assay [4], in [5] and in assay [6] was above 30 µM in each case. The AC50 in assay [7], in assay [8], in [9], in assay [10] and in assay [11] was above 30 µM in each case.
Turning to `CC(=O)OCC(=O)[C@@]12N=C(C)O[C@@H]1C[C@H]1[C@@H]3CCC4=CC(=O)C=C[C@]4(C)[C@H]3[C@@H](O)C[C@@]12C` [DEFLAZACORT], the AC50 in [1], in assay [2], in assay [3], in [4], in assay [5] and in assay [6] was above 30 µM each time. In addition, the AC50 in assay [7], in [8], in [9], in assay [10] and in [11] was above 30 µM in each case.
On to `CC1(C)O[C@@H]2C[C@H]3[C@@H]4CCC5=CC(=O)C=C[C@]5(C)[C@H]4[C@@H](O)C[C@]3(C)[C@]2(C(=O)CO)O1` [DESONIDE], for which the AC50 is above 10 µM in assay [1]; above 10 µM in assay [2]; above 10 µM in [3]; above 30 µM in assay [4]; above 10 µM in assay [5]; above 30 µM in assay [6]. Also, the AC50 in assay [7] is above 10 µM; in assay [8] it was above 10 µM; in assay [9] it was above 10 µM; in assay [10], above 30 µM; in assay [11], above 30 µM.
`Cc1ccc(S(=O)(=O)NC(=O)NN2CC3CCCC3C2)cc1` (stereo not given) [GLICLAZIDE]: the AC50 is above 10 µM in assay [1]; above 10 µM in assay [2]; above 10 µM in assay [3]; above 10 µM in assay [4]; above 10 µM in [5]; above 30 µM in assay [6]. Moreover, the AC50 in [7] is above 10 µM; in assay [8], above 10 µM; in [9], above 30 µM; in assay [10], above 30 µM; in [11], above 30 µM.
As to `CC(C)Cn1cnc2c(N)nc3ccccc3c21` [IMIQUIMOD], the AC50 in assay [1] was above 10 µM; in assay [2], above 10 µM; in [3] it was above 10 µM; in [4], above 10 µM; in assay [5], above 10 µM; in assay [6], above 30 µM. Besides, the concentration at half-maximal activity (AC50) in [7] is above 30 µM; in [8], above 30 µM; in assay [9] it was above 10 µM; in assay [10], above 30 µM; in assay [11], above 30 µM.
For the molecule `CCC(C(=O)O)c1ccc(N2Cc3ccccc3C2=O)cc1` (stereo not given) [INDOBUFEN], the AC50 in [1], in assay [2], in assay [3], in [4], in assay [5] and in [6] was above 30 µM each time. For the same molecule, the AC50 in assay [7], in assay [8], in [9], in assay [10] and in assay [11] was above 30 µM throughout.
Consider `CC(C(=O)O)c1ccc(N2Cc3ccccc3C2=O)cc1` (stereo not given) [INDOPROFEN], for which the AC50 in assay [1], in assay [2], in assay [3], in assay [4], in [5] and in assay [6] was above 30 µM each time. For the same molecule, the AC50 in [7], in assay [8], in assay [9], in assay [10] and in [11] was above 30 µM each time.
As for `CO[C@@H]1[C@@H](O[C@@H]2O[C@H](C)[C@@H](O[C@H]3C[C@@](C)(O)[C@@H](OC(=O)CC(C)C)[C@H](C)O3)[C@H](N(C)C)[C@H]2O)[C@@H](CC=O)C[C@@H](C)[C@@H](O)/C=C/C=C/C[C@@H](C)OC(=O)C[C@H]1OC(C)=O` [JOSAMYCIN], the concentration at half-maximal activity (AC50) in [1] is above 10 µM; in assay [2], above 10 µM; in [3], above 10 µM; in [4] it was above 10 µM; in [5] it was above 10 µM; in assay [6] it was above 30 µM. Also, the AC50 is above 10 µM in assay [7]; above 10 µM in assay [8]; above 10 µM in assay [9]; above 30 µM in assay [10]; above 30 µM in assay [11].
